Experimental data from patent US20230095836A1, “SUBSTITUTED 5,6-DIPHENYL-3(2H)-PYRIDAZINONES FOR USE AS FUNGICIDES” (FMC Corporation, priority 2020, published 2023).

What was measured:
[1] = tested on: Blumeria graminis f. sp. tritici; experiment: Test C: test suspension sprayed on wheat seedlings, inoculated next day with Blumeria graminis f. sp. tritici (wheat powdery mildew); visual disease rating (100 = 100% disease control, 0 = no control; dash = not tested); format: in vivo
Outline: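 Visual ratings of disease control (0–100, relative to controls) were made 8 days after inoculation with B. graminis f. sp. tritici spore dust. Plants were held at 20 °C. Compound was applied as a spray to run-off one day before inoculation.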

[2] = tested on: Puccinia recondita f. sp. tritici; experiment: Test B: test solution sprayed on wheat seedlings, inoculated next day with Puccinia recondita f. sp. tritici (wheat leaf rust); disease rating (100 = 100% disease control, 0 = no control; dash = not tested); format: in vivo
Description: The resulting test suspensions were then used in Tests A-F. The test solution was sprayed to the point of run-off on wheat seedlings. […] A rating of 100 indicates 100% disease control and a rating of 0 indicates no disease control (relative to the controls). A dash (—) indicates the compound was not tested.

[3] = tested on: Botrytis cinerea; experiment: Test E: test suspension sprayed on tomato seedlings, inoculated next day with Botrytis cinerea (tomato Botrytis); visual disease rating (100 = 100% disease control, 0 = no control; dash = not tested); format: in vivo
Outline: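 Spores were applied one day after spraying the seedlings to run-off. Incubation was 48 h saturated at 20° C, then 3 days in a 24° C growth chamber. Visual ratings, relative to untreated controls, run from 0 (no control) to 100 (complete control).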

[4] = tested on: Alternaria solani; experiment: Test F: test suspension sprayed on tomato seedlings, inoculated next day with Alternaria solani (tomato early blight); visual disease rating (100 = 100% disease control, 0 = no control; dash = not tested); format: in vivo
Outline: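 Visual ratings of % disease control versus controls were made after inoculated plants spent 48 h at 27° C. in saturated air plus 3 days at 20° C. The compound suspension had been sprayed to run-off one day before spore inoculation.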

[5] = tested on: Zymoseptoria tritici; experiment: Test A: test solution sprayed on wheat seedlings, inoculated next day with Zymoseptoria tritici (wheat leaf blotch); disease rating (100 = 100% disease control, 0 = no control; dash = not tested); format: in vivo
Outline: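 Preventive spray test: compound applied to run-off one day before spore inoculation of wheat seedlings. Incubation was 48 h saturated humidity at 24° C followed by 17 days at 20° C. Disease then scored 0–100 as % control versus untreated plants.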

[6] = tested on: Phakopsora pachyrhizi; experiment: Test D: test solution sprayed on soybean seedlings, inoculated next day with Phakopsora pachyrhizi (Asian soybean rust); visual disease rating (100 = 100% disease control, 0 = no control; dash = not tested); format: in vivo
Outline: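 Preventive spray test: soybean seedlings treated to run-off with ppm-level suspensions (acetone/water 50/50, 250 ppm PEG400), spore-inoculated one day later. Held 24 h at 22 °C in saturated air, then 8 days at 22 °C; disease control scored visually versus untreated plants, 0 = none, 100 = complete.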

| SMILES | melting point | pest or weed control at 250 ppm [1] | pest or weed control at 250 ppm [2] | pest or weed control at 250 ppm [3] | pest or weed control at 250 ppm [4] | pest or weed control at 250 ppm [5] | pest or weed control at 250 ppm [6] | pest or weed control at 50 ppm [1] | pest or weed control at 50 ppm [2] | pest or weed control at 50 ppm [3] | pest or weed control at 50 ppm [4] | pest or weed control at 50 ppm [5] | pest or weed control at 50 ppm [6] |
| --- | --- | --- | --- | --- | --- | --- | --- | --- | --- | --- | --- | --- | --- |
| CCN1N=C(c2cc(OC)cc(OC)c2)C(c2c(F)cccc2F)CC1=O (stereo not drawn) [Compound 33, 5-(2,6-difluorophenyl)-6-(3,5-dimethoxyphenyl)-4,5-dihydro-2-ethyl-3(2H)-pyridazinone] | 119 to 122 °C | 0% | 55% | 0% | 0% | 0% | 0% |  |  |  |  |  |  |
| COc1cc(OC)cc(-c2nn(C)c(=O)c(Br)c2-c2c(F)cccc2F)c1 [Compound 34, 4-bromo-5-(2,6-difluorophenyl)-6-(3,5-dimethoxyphenyl)-2-methyl-3(2H)-pyridazinone] | 153 to 157 °C | 95% | 89% | 99% | 99% | 100% | 99% |  |  |  |  |  |  |
| COc1cc(OC)cc(-c2nn(C)c(=O)c(Cl)c2-c2c(F)cccc2F)c1 [Compound 36, 4-chloro-5-(2,6-difluorophenyl)-6-(3,5-dimethoxyphenyl)-2-methyl-3(2H)-pyridazinone] | 150 to 154 °C | 99% | 100% | 100% | 99% | 100% | 93% |  |  |  |  |  |  |
| COc1cc(OC)cc(-c2nn(C)c(=O)cc2-c2c(F)cccc2F)c1 [Compound 38, 5-(2,6-difluorophenyl)-6-(3,5-dimethoxyphenyl)-2-methyl-3(2H)-pyridazinone] | 132 to 136 °C | 81% | 99% | 98% | 0% | 98% | 0% |  |  |  |  |  |  |
| COc1cc(OC)cc(C2=NN(C)C(=O)CC2c2c(F)cccc2F)c1 (stereo not drawn) [Compound 39, 5-(2,6-difluorophenyl)-6-(3,5-dimethoxyphenyl)-4,5-dihydro-2-methyl-3(2H)-pyridazinone] | 139 to 142 °C | 69% | 86% | 99% | 0% | 98% | 0% |  |  |  |  |  |  |
| COc1ccc(Cl)c(-c2nn(C)c(=O)c(Cl)c2-c2c(F)cccc2F)c1 [Compound 57, 4-chloro-6-(2-chloro-5-methoxyphenyl)-5-(2,6-difluorophenyl)-2-methyl-3(2H)-pyridazinone] | 134 to 137 °C |  |  |  |  |  |  | 99% | 100% | 99% | 100% | 100% | 99% |
| COc1ccc(Cl)c(-c2nn(C)c(=O)c(C)c2-c2c(F)cccc2F)c1 [Compound 68, 6-(2-chloro-5-methoxyphenyl)-5-(2,6-difluorophenyl)-2,4-dimethyl-3(2H)-pyridazinone] | 135 to 138 °C |  |  |  |  |  |  | 100% | 100% | 99% | 100% | 100% | 100% |

Second part, led by results:

| melting point | SMILES | pest or weed control at 250 ppm [1] | pest or weed control at 250 ppm [2] | pest or weed control at 250 ppm [3] | pest or weed control at 250 ppm [4] | pest or weed control at 250 ppm [5] | pest or weed control at 250 ppm [6] | pest or weed control at 50 ppm [1] | pest or weed control at 50 ppm [2] | pest or weed control at 50 ppm [3] | pest or weed control at 50 ppm [4] | pest or weed control at 50 ppm [5] | pest or weed control at 50 ppm [6] |
| --- | --- | --- | --- | --- | --- | --- | --- | --- | --- | --- | --- | --- | --- |
| 192 to 196 °C | COc1cc(OC)c(Cl)c(-c2nn(C)c(=O)c(Cl)c2-c2c(F)cccc2F)c1 [Compound 35, 4-chloro-6-(2-chloro-3,5-dimethoxyphenyl)-5-(2,6-difluorophenyl)-2-methyl-3(2H)-pyridazinone] | 100% | 100% | 99% | 99% | 100% | 100% |  |  |  |  |  |  |
| 223 to 227 °C | COc1cc(OC)c([N+](=O)[O-])c(-c2nn(C)c(=O)c(Cl)c2-c2c(F)cccc2F)c1 [Compound 37, 4-chloro-5-(2,6-difluorophenyl)-6-(3,5-dimethoxy-2-nitrophenyl)-2-methyl-3(2H)-pyridazinone] | 98% | 100% | 99% | 99% | 99% | 100% |  |  |  |  |  |  |
| 126 to 129 °C | Cc1c(-c2ccc(F)cc2Cl)c(-c2ccc(F)cc2Cl)nn(C)c1=O [Compound 44, 5,6-bis(2-chloro-4-fluorophenyl)-2,4-dimethyl-3(2H)-pyridazinone] |  |  |  |  |  |  | 100% | 100% | 93% | 100% | 100% | 100% |
| 85 to 90 °C | COc1cc(OC)c(Cl)c(-c2nn(C)c(=O)c(Cl)c2-c2ccc(F)cc2Cl)c1 [Compound 58, 4-chloro-6-(2-chloro-3,5-dimethoxyphenyl)-5-(2-chloro-4-fluorophenyl)-2-methyl-3(2H)-pyridazinone] |  |  |  |  |  |  | 100% | 100% | 99% | 100% | 100% | 100% |
| 140 to 143 °C | COc1cc(OC)c(Cl)c(-c2nn(C)c(=O)c(C)c2-c2ccc(F)cc2Cl)c1 [Compound 66, 6-(2-chloro-3,5-dimethoxyphenyl)-5-(2-chloro-4-fluorophenyl)-2,4-dimethyl-3(2H)-pyridazinone] |  |  |  |  |  |  | 100% | 100% | 100% | 100% | 100% | 100% |
| 130 to 133 °C | COc1cc(OC)c(Cl)c(-c2nn(C)c(=O)c(OC)c2-c2ccc(F)cc2Cl)c1 [Compound 80, 6-(2-chloro-3,5-dimethoxyphenyl)-5-(2-chloro-4-fluorophenyl)-4-methoxy-2-methyl-3(2H)-pyridazinone] |  |  |  |  |  |  | 100% | 100% | 99% | 100% | 100% | 100% |
| 165 to 168 °C | COc1ccc(Cl)c(-c2nn(C)c(=O)c(Cl)c2-c2ccc(F)cc2Cl)c1 [Compound 83, 4-chloro-5-(2-chloro-4-fluorophenyl)-6-(2-chloro-5-methoxyphenyl)-2-methyl-3(2H)-pyridazinone] |  |  |  |  |  |  | 99% | 100% | 92% | 100% | 100% | 100% |
| 149 to 150 °C | COc1ccc(Cl)c(-c2nn(C)c(=O)c(C)c2-c2ccc(F)cc2Cl)c1 [Compound 102, 5-(2-chloro-4-fluorophenyl)-6-(2-chloro-5-methoxyphenyl)-2,4-dimethyl-3(2H)-pyridazinone] |  |  |  |  |  |  | 100% | 100% | 98% | 100% | 100% | 100% |
